6 molecules from patent publication US4652638A, “3-O-acyl-4"-deoxydesmycosin derivatives” (Toyo Jozo Kabushiki Kaisha, priority 1983, dated 1987) can be followed below.

Assay in all cases: MIC (minimum inhibitory concentration)
Common to all, as to format: cell-based

Assay [1] deals with Streptococcus faecalis 1501. The settings on record: Enterococcus faecalis; Streptococcus faecalis 1501; read-out: MIC.
The subject of assay [2] is Staphylococcus aureus MS353 A0*. Conditions: * clinical isolate, macrolide-resistant bacteria A group.
The test system of assay [3] is Pseudomonas aeruginosa IAM 1095. Conditions: IAM1095; Pseudomonas aeruginosa IAM 1095; read-out: MIC.
The subject of another assay is Escherichia coli B. The settings on record: Escherichia coli B; read-out: MIC.
Assay [4] concerns Klebsiella pneumoniae ATCC 10031. Conditions: ATCC10031; Klebsiella pneumoniae ATCC 10031; read-out: MIC.
In assay [5] the test system is Micrococcus flavus ATCC 10240. Conditions: ATCC10240; Micrococcus flavus ATCC 10240; read-out: MIC.
Assay [6] deals with Bacillus subtilis ATCC 6633. Conditions: ATCC6633; Bacillus subtilis ATCC 6633; read-out: MIC.
Assay [7] deals with Staphylococcus epidermidis sp-al-1. The settings on record: SPAL1; Staphylococcus epidermidis sp-al-1; read-out: MIC.
The subject of assay [8] is Staphylococcus aureus 0127*. Conditions: Staphylococcus aureus.
For a further assay, the system named is Salmonella typhosa H901. Conditions: Salmonella enterica, TYPHOSA.
The subject of another assay is Shigella sonnei E33.
In assay [9] the test system is Staphylococcus aureus 0119*.
In assay [10] the test system is Shigella flexineri type 3a. The settings on record: TYPE3A.
In another assay the test system is Sarcina lutea ATCC 9341. Conditions: Micrococcus luteus, ATCC9341; Sarcina lutea ATCC 9341; read-out: MIC.
The next assay concerns Proteus vulgaris OX19. The settings on record: read-out: MIC.
In assay [11] the test system is Streptococcus pyogenes N.Y.5.
Assay [12] has as its system Streptococcus pyogenes 1022*.
Another assay deals with Serratia marcescens. The settings on record: read-out: MIC.
For assay [13], the system named is Streptococcus agalaactiae 1020. The settings on record: Streptococcus agalaactiae 1020; read-out: MIC.
Assay [14] concerns Escherichia coli NIHJ-JC2. Conditions: NIHJJC2; Escherichia coli NIHJ-JC2; read-out: MIC.
The test system of assay [15] is Staphylococcus aureus MS353.
For assay [16], the system named is Staphylococcus aureus MS353 C36. Conditions: MS353C36.
Assay [17] relates to Staphylococcus aureus ATCC 6538P. The settings on record: ATCC6538P.
Assay [18] deals with Salmonella enteritidis Gaertner. Conditions: Salmonella enterica; Salmonella enteritidis Gaertner; read-out: MIC.
[19] abbreviates: Streptococcus pyogenes 1022, * clinical isolate, macrolide-resistant bacteria A group, read-out: MIC.

SMILES strings stand for the structures. In brackets after ≈: the same amount, converted by molar mass. Where two headings read alike, the source gives them in different places.

The MIC is the least concentration at which growth counts as inhibited.

Turning to `CCC1OC(=O)CC(OC(C)=O)C(C)C(OC2OC(C)C(O)C(N(C)C)C2O)C(CC=O)CC(C)C(=O)C=CC(C)=CC1COC1OC(C)CC(OC)C1OC` (stereo not drawn) [Example 1, 3-O-acetyl-4"-deoxydesmycosin], the MIC is 0.8 µg/mL (≈ 1 µM) in assay [1]; more than 100 µg/mL in assay [2]; more than 100 µg/mL in assay [3]; more than 100 µg/mL in the assay with Escherichia coli B; 25 µg/mL (≈ 31.3 µM) in assay [4]; not above 0.05 µg/mL in [5]. In addition, the MIC was 0.2 µg/mL (≈ 0.251 µM) in assay [6]; 0.1 µg/mL (≈ 0.125 µM) in assay [7]; more than 100 µg/mL in assay [8]; more than 100 µg/mL in the assay on Salmonella typhosa H901; more than 100 µg/mL with Shigella sonnei E33; 100 µg/mL (≈ 125 µM) in assay [9] (Staphylococcus aureus). The MIC in assay [10] was 50 µg/mL (≈ 62.7 µM); in the assay with Sarcina lutea ATCC 9341, not above 0.05 µg/mL; with Proteus vulgaris OX19 it was 25 µg/mL (≈ 31.3 µM); in assay [11], not above 0.05 µg/mL; in [12] (setting [19]), 50 µg/mL (≈ 62.7 µM); in the assay with Serratia marcescens, more than 100 µg/mL. Besides, the MIC in assay [13] was 0.1 µg/mL (≈ 0.125 µM); in [14], more than 100 µg/mL; in [15] it was 0.2 µg/mL (≈ 0.251 µM); in assay [16], 0.2 µg/mL (≈ 0.251 µM); in [17], 0.4 µg/mL (≈ 0.501 µM); in assay [18] it was more than 100 µg/mL.

In the case of `CCC(=O)OC1CC(=O)OC(CC)C(COC2OC(C)CC(OC)C2OC)C=C(C)C=CC(=O)C(C)CC(CC=O)C(OC2OC(C)C(O)C(N(C)C)C2O)C1C` (stereo not drawn) [Example 2, 3-O-propionyl-4"-deoxydesmycosin], the MIC in [1] is 0.4 µg/mL (≈ 0.493 µM); in [2], 12.5 µg/mL (≈ 15.4 µM); in assay [3], 50 µg/mL (≈ 61.6 µM); in the assay with Escherichia coli B, 100 µg/mL (≈ 123 µM); in assay [4], 25 µg/mL (≈ 30.8 µM); in [5], not above 0.05 µg/mL. The MIC was 0.1 µg/mL (≈ 0.123 µM) in [6]; not above 0.05 µg/mL in assay [7]; 12.5 µg/mL (≈ 15.4 µM) in assay [8]; more than 100 µg/mL with Salmonella typhosa H901; more than 100 µg/mL in the assay on Shigella sonnei E33; 25 µg/mL (≈ 30.8 µM) in assay [9] (Staphylococcus aureus 0119, * clinical isolate, macrolide-resistant bacteria A group, read-out: MIC). Further, the MIC in assay [10] was 50 µg/mL (≈ 61.6 µM); in the assay on Sarcina lutea ATCC 9341, not above 0.05 µg/mL; in the assay with Proteus vulgaris OX19, 50 µg/mL (≈ 61.6 µM); in [11], not above 0.05 µg/mL; in [12] (Streptococcus pyogenes) it was 12.5 µg/mL (≈ 15.4 µM); in the assay with Serratia marcescens it was more than 100 µg/mL. The MIC is 0.1 µg/mL (≈ 0.123 µM) in [13]; more than 100 µg/mL in [14]; 0.2 µg/mL (≈ 0.246 µM) in assay [15]; 0.2 µg/mL (≈ 0.246 µM) in assay [16]; 0.4 µg/mL (≈ 0.493 µM) in assay [17]; more than 100 µg/mL in assay [18].

Regarding `CCC1OC(=O)CC(OC(=O)c2ccccc2)C(C)C(OC2OC(C)C(O)C(N(C)C)C2O)C(CC=O)CC(C)C(=O)C=CC(C)=CC1COC1OC(C)CC(OC)C1OC` (stereo not drawn) [Example 5, 3-O-benzoyl-4"-deoxydesmycosin], the MIC in assay [1] was 1.6 µg/mL (≈ 1.86 µM); in assay [2], 50 µg/mL (≈ 58.1 µM); in [3] it was more than 100 µg/mL; with Escherichia coli B it was more than 100 µg/mL; in assay [4], 25 µg/mL (≈ 29.1 µM); in [5], not above 0.05 µg/mL. The minimum inhibitory concentration (MIC) in assay [6] is 0.1 µg/mL (≈ 0.116 µM); in assay [7], 0.1 µg/mL (≈ 0.116 µM); in assay [8], more than 100 µg/mL; against Salmonella typhosa H901, more than 100 µg/mL; in the assay with Shigella sonnei E33, more than 100 µg/mL; in [9] (Staphylococcus aureus), more than 100 µg/mL. Moreover, the MIC is 100 µg/mL (≈ 116 µM) in assay [10]; not above 0.05 µg/mL in the assay on Sarcina lutea ATCC 9341; 50 µg/mL (≈ 58.1 µM) with Proteus vulgaris OX19; not above 0.05 µg/mL in assay [11]; 25 µg/mL (≈ 29.1 µM) in [12] (setting [19]); more than 100 µg/mL in the assay on Serratia marcescens. Moreover, the MIC in assay [13] was 0.2 µg/mL (≈ 0.233 µM); in assay [14], more than 100 µg/mL; in [15] it was 0.2 µg/mL (≈ 0.233 µM); in [16] it was 0.2 µg/mL (≈ 0.233 µM); in [17] it was 0.2 µg/mL (≈ 0.233 µM); in assay [18] it was more than 100 µg/mL.

Consider `CCC1OC(=O)CC(OC(C)=O)C(C)C(OC2OC(C)C(O)C(N(C)C)C2O)C(C)CC(C)C(=O)C=CC(C)=CC1COC1OC(C)CC(OC)C1OC` (stereo not drawn) [Example 7, 3-O-acetyl-19-deformyl-4"-deoxydesmycosin], for which the MIC is 3.1 µg/mL (≈ 4.03 µM) in [1]; more than 100 µg/mL in [2]; more than 100 µg/mL in assay [3]; more than 100 µg/mL with Escherichia coli B; 25 µg/mL (≈ 32.5 µM) in [4]; not above 0.05 µg/mL in [5]. Also, the MIC in assay [6] is 0.1 µg/mL (≈ 0.13 µM); in [7] it was 0.1 µg/mL (≈ 0.13 µM); in assay [8], more than 100 µg/mL; against Salmonella typhosa H901, more than 100 µg/mL; with Shigella sonnei E33, more than 100 µg/mL; in assay [9] (Staphylococcus aureus) it was more than 100 µg/mL. The MIC was more than 100 µg/mL in [10]; not above 0.05 µg/mL in the assay with Sarcina lutea ATCC 9341; 100 µg/mL (≈ 130 µM) in the assay with Proteus vulgaris OX19; 0.1 µg/mL (≈ 0.13 µM) in assay [11]; more than 100 µg/mL in [12] (Streptococcus pyogenes); more than 100 µg/mL in the assay with Serratia marcescens. The MIC in [13] was 0.8 µg/mL (≈ 1.04 µM); in assay [14], more than 100 µg/mL; in [15] it was 0.2 µg/mL (≈ 0.26 µM); in assay [16], 0.2 µg/mL (≈ 0.26 µM); in assay [17], 0.4 µg/mL (≈ 0.52 µM); in [18] it was more than 100 µg/mL.

Regarding `CCC(=O)OC1CC(=O)OC(CC)C(COC2OC(C)CC(OC)C2OC)C=C(C)C=CC(=O)C(C)CC(C)C(OC2OC(C)C(O)C(N(C)C)C2O)C1C` (stereo not drawn) [Example 8, 3-O-propionyl-19-deformyl-4"-deoxydesmycosin], the MIC was 3.1 µg/mL (≈ 3.95 µM) in [1]; more than 100 µg/mL in assay [2]; more than 100 µg/mL in assay [3]; 100 µg/mL (≈ 128 µM) with Escherichia coli B; 12.5 µg/mL (≈ 15.9 µM) in assay [4]; not above 0.05 µg/mL in assay [5]. The MIC in assay [6] was 0.1 µg/mL (≈ 0.128 µM); in assay [7] it was 0.1 µg/mL (≈ 0.128 µM); in [8], more than 100 µg/mL; against Salmonella typhosa H901, more than 100 µg/mL; against Shigella sonnei E33, more than 100 µg/mL; in [9] (Staphylococcus aureus), more than 100 µg/mL. In addition, the MIC in assay [10] is 100 µg/mL (≈ 128 µM); in the assay with Sarcina lutea ATCC 9341, not above 0.05 µg/mL; with Proteus vulgaris OX19, 100 µg/mL (≈ 128 µM); in [11], 0.1 µg/mL (≈ 0.128 µM); in [12] (Streptococcus pyogenes) it was more than 100 µg/mL; with Serratia marcescens, more than 100 µg/mL. Moreover, the MIC in assay [13] is 0.4 µg/mL (≈ 0.51 µM); in [14], more than 100 µg/mL; in [15] it was 0.4 µg/mL (≈ 0.51 µM); in assay [16], 0.2 µg/mL (≈ 0.255 µM); in [17] it was 0.4 µg/mL (≈ 0.51 µM); in [18] it was more than 100 µg/mL.

As to `CCC1OC(=O)CC(OC(=O)c2ccccc2)C(C)C(OC2OC(C)C(O)C(N(C)C)C2O)C(C)CC(C)C(=O)C=CC(C)=CC1COC1OC(C)CC(OC)C1OC` (stereo not drawn) [Example 9, 3-O-benzoyl-19-deformyl-4"-deoxydesmycosin], the MIC is 1.6 µg/mL (≈ 1.92 µM) in assay [1]; more than 100 µg/mL in [2]; more than 100 µg/mL in [3]; more than 100 µg/mL with Escherichia coli B; 25 µg/mL (≈ 30 µM) in assay [4]; not above 0.05 µg/mL in [5]. The MIC in [6] was 0.2 µg/mL (≈ 0.24 µM); in [7], not above 0.05 µg/mL; in [8], more than 100 µg/mL; against Salmonella typhosa H901 it was more than 100 µg/mL; with Shigella sonnei E33, more than 100 µg/mL; in assay [9] (Staphylococcus aureus) it was more than 100 µg/mL. Further, the MIC in [10] is more than 100 µg/mL; in the assay with Sarcina lutea ATCC 9341 it was not above 0.05 µg/mL; with Proteus vulgaris OX19 it was 100 µg/mL (≈ 120 µM); in assay [11] it was not above 0.05 µg/mL; in [12] (Streptococcus pyogenes), more than 100 µg/mL; in the assay with Serratia marcescens, more than 100 µg/mL. The MIC was 0.2 µg/mL (≈ 0.24 µM) in assay [13]; more than 100 µg/mL in assay [14]; 0.2 µg/mL (≈ 0.24 µM) in [15]; 0.1 µg/mL (≈ 0.12 µM) in assay [16]; 0.2 µg/mL (≈ 0.24 µM) in assay [17]; more than 100 µg/mL in [18].
